According to publication PMC7901654, “Bioisosteric Discovery of NPA101.3, a Second-Generation RET/VEGFR2 Inhibitor Optimized for Single-Agent Polypharmacology” (Journal of Medicinal Chemistry, 2020):

Experiments:
Test in all cases: KinomeScan panel screen
Format in all cases: binding
CDK5 = molecular target: T1, CDK5 (Homo sapiens, UniProt Q00535); conditions: CDK5, 100 nM; read-out: Percent Control
T1 construct: purchased DiscoveRx KINOMEscan (TRKA and CSF1R IC50 enzymes from Invitrogen)
Procedure: (§1) In addition, NPA101.3, at a concentration of 100 nM, was subjected to a kinome scan against a 96-kinase panel representing major kinome clusters (Table S2). The compound featured good selectivity, displaying strong binding activity (>90% bound) for only seven additional kinases [CSF1R (colony stimulating factor 1 receptor), FRK (fyn-related Src family tyrosine kinase), HCK (HCK proto-oncogene, Src family tyrosine kinase), LYN (lyn proto-oncogene, Src family tyrosine kinase), MKNK2 (MAPK-interacting serine/threonine kinase 2), TRKA (neurotrophic receptor tyrosine kinase 1), and TRKC (neurotrophic receptor tyrosine kinase 3)] and weak binding (>10–35% bound) for six other kinases (Table S2 and Figure S2). It is important to note that the measurement of binding affinity, which is based on control ligand displacement (Kd), is more sensitive than the in vitro kinase assay. Among the seven kinases with >90% binding, TRKA and CSF1R were selected for an in vitro kinase assay.
(§2) Supplementary Table S2: NPA101.3 KinomeScan Panel screen.
(§3) NPA101.3 was screened at a single concentration of 100 nM. Hits values lower than
(§4) 10% of control were considered strongly positive.
(§5) DiscoveRx Gene Entrez Gene Percent Compound
(§6) Symbol Symbol Control Concentration

LRRK2 = molecular target: T2, LRRK2 (Homo sapiens, UniProt Q5S007); conditions: LRRK2, 100 nM; read-out: Percent Control
T2 construct: purchased DiscoveRx KINOMEscan (TRKA and CSF1R IC50 enzymes from Invitrogen)
Procedure: as §1, §2, §3, §4, §5, §6

CDK7 = molecular target: T3, CDK7 (Homo sapiens, UniProt P50613); conditions: CDK7, 100 nM; read-out: Percent Control
T3 construct: purchased DiscoveRx KINOMEscan (TRKA and CSF1R IC50 enzymes from Invitrogen)
Procedure: as §1, §2, §3, §4, §5, §6

CAMK2A = molecular target: T4, CAMK2A (Homo sapiens, UniProt Q9UQM7); conditions: 100 nM, read-out: Percent Control
T4 construct: purchased DiscoveRx KINOMEscan (TRKA and CSF1R IC50 enzymes from Invitrogen)
Procedure: as §1, §2, §3, §4, §5, §6

ASK1 = molecular target: T5, ASK1 (Homo sapiens, UniProt Q99683); conditions: ASK1, 100 nM; read-out: Percent Control
T5 construct: purchased DiscoveRx KINOMEscan (TRKA and CSF1R IC50 enzymes from Invitrogen)
Procedure: as §1, §2, §3, §4, §5, §6

PLK1 = molecular target: T6, PLK1 (Homo sapiens, UniProt P53350); conditions: PLK1, 100 nM; read-out: Percent Control
T6 construct: purchased DiscoveRx KINOMEscan (TRKA and CSF1R IC50 enzymes from Invitrogen)
Procedure: as §1, §2, §3, §4, §5, §6

GAK = molecular target: T7, GAK (Homo sapiens, UniProt O14976); conditions: 100 nM, read-out: Percent Control
T7 construct: purchased DiscoveRx KINOMEscan (TRKA and CSF1R IC50 enzymes from Invitrogen)
Procedure: as §1, §2, §3, §4, §5, §6

MTOR = molecular target: T8, MTOR (Homo sapiens, UniProt P42345); conditions: 100 nM, read-out: Percent Control
T8 construct: purchased DiscoveRx KINOMEscan (TRKA and CSF1R IC50 enzymes from Invitrogen)
Procedure: as §1, §2, §3, §4, §5, §6

ULK1 = molecular target: T9, ULK1 (Homo sapiens, UniProt O75385); conditions: ULK1, 100 nM; read-out: Percent Control
T9 construct: purchased DiscoverX (outsourced KINOMEscan)
Procedure: as §1, §2, §3, §4, §5, §6

MYO3A = molecular target: T10, MYO3A (Homo sapiens, UniProt Q8NEV4); conditions: 100 nM, read-out: Percent Control
T10 construct: purchased DiscoveRx KINOMEscan (TRKA and CSF1R IC50 enzymes from Invitrogen)
Procedure: as §1, §2, §3, §4, §5, §6

PCTK1 = molecular target: T11, PCTK1 (Homo sapiens, UniProt Q00536); conditions: PCTK1, 100 nM; read-out: Percent Control
T11 construct: purchased DiscoveRx KINOMEscan (TRKA and CSF1R IC50 enzymes from Invitrogen)
Procedure: as §1, §2, §3, §4, §5, §6

FGFR3 = molecular target: T12, FGFR3 (Homo sapiens, UniProt P22607); conditions: FGFR3, 100 nM; read-out: Percent Control
T12 construct: purchased DiscoveRx KINOMEscan (TRKA and CSF1R IC50 enzymes from Invitrogen)
Procedure: as §1, §2, §3, §4, §5, §6

HIPK2 = molecular target: T13, HIPK2 (Homo sapiens, UniProt Q9H2X6); conditions: HIPK2, 100 nM; read-out: Percent Control
T13 construct: purchased DiscoveRx KINOMEscan (TRKA and CSF1R IC50 enzymes from Invitrogen)
Procedure: as §1, §2, §3, §4, §5, §6

AXL = molecular target: T14, AXL (Homo sapiens, UniProt P30530); conditions: 100 nM, read-out: Percent Control
T14 construct: purchased DiscoveRx KINOMEscan (TRKA and CSF1R IC50 enzymes from Invitrogen)
Procedure: as §1, §2, §3, §4, §5, §6

TLK1 = molecular target: T15, TLK1 (Homo sapiens, UniProt Q9UKI8); conditions: TLK1, 100 nM; read-out: Percent Control
T15 construct: purchased DiscoveRx KINOMEscan (TRKA and CSF1R IC50 enzymes from Invitrogen)
Procedure: as §1, §2, §3, §4, §5, §6

BTK = molecular target: T16, BTK (Homo sapiens, UniProt Q06187); conditions: 100 nM, read-out: Percent Control
T16 construct: purchased DiscoveRx KINOMEscan (TRKA and CSF1R IC50 enzymes from Invitrogen)
Procedure: as §1, §2, §3, §4, §5, §6

MKNK2 = molecular target: T17, MKNK2 (Homo sapiens, UniProt Q9HBH9)
T17 construct: purchased DiscoveRx KINOMEscan (TRKA and CSF1R IC50 enzymes from Invitrogen)
Procedure: as §1, §2, §3, §4, §5, §6

CTK = molecular target: T18, CTK (Homo sapiens, UniProt P42679); conditions: 100 nM, read-out: Percent Control
T18 construct: purchased DiscoveRx KINOMEscan (TRKA and CSF1R IC50 enzymes from Invitrogen)
Procedure: as §1, §2, §3, §4, §5, §6

TSSK1B = molecular target: T19, TSSK1B (Homo sapiens, UniProt Q9BXA7); conditions: 100 nM, read-out: Percent Control
T19 construct: purchased DiscoverX (outsourced KINOMEscan)
Procedure: as §1, §2, §3, §4, §5, §6

ACVR1 = molecular target: T20, ACVR1 (Homo sapiens, UniProt Q04771); conditions: ACVR1, 100 nM; read-out: Percent Control
T20 construct: purchased DiscoveRx KINOMEscan (TRKA and CSF1R IC50 enzymes from Invitrogen)
Procedure: as §1, §2, §3, §4, §5, §6

AURKA = molecular target: T21, AURKA (Homo sapiens, UniProt O14965); conditions: 100 nM, read-out: Percent Control
T21 construct: purchased DiscoveRx KINOMEscan (TRKA and CSF1R IC50 enzymes from Invitrogen)
Procedure: as §1, §2, §3, §4, §5, §6

S6K1 = molecular target: T22, S6K1 (Homo sapiens, UniProt P23443); conditions: S6K1, 100 nM; read-out: Percent Control
T22 construct: purchased DiscoveRx KINOMEscan (TRKA and CSF1R IC50 enzymes from Invitrogen)
Procedure: as §1, §2, §3, §4, §5, §6

RIPK4 = molecular target: T23, RIPK4 (Homo sapiens, UniProt P57078); conditions: RIPK4, 100 nM; read-out: Percent Control
T23 construct: purchased DiscoveRx KINOMEscan (TRKA and CSF1R IC50 enzymes from Invitrogen)
Procedure: as §1, §2, §3, §4, §5, §6

FAK = molecular target: T24, FAK (Homo sapiens, UniProt Q05397); conditions: 100 nM, read-out: Percent Control
T24 construct: purchased DiscoveRx KINOMEscan (TRKA and CSF1R IC50 enzymes from Invitrogen)
Procedure: as §1, §2, §3, §4, §5, §6

PIK3C2B = molecular target: T25, PIK3C2B (Homo sapiens, UniProt O00750); conditions: 100 nM, read-out: Percent Control
T25 construct: purchased DiscoveRx KINOMEscan (TRKA and CSF1R IC50 enzymes from Invitrogen)
Procedure: as §1, §2, §3, §4, §5, §6

BUB1 = molecular target: T26, BUB1 (Homo sapiens, UniProt O43683); conditions: BUB1, 100 nM; read-out: Percent Control
T26 construct: purchased DiscoveRx KINOMEscan (TRKA and CSF1R IC50 enzymes from Invitrogen)
Procedure: as §1, §2, §3, §4, §5, §6

TXK = molecular target: T27, TXK (Homo sapiens, UniProt P42681); conditions: 100 nM, read-out: Percent Control
T27 construct: purchased DiscoverX (outsourced KINOMEscan)
Procedure: as §1, §2, §3, §4, §5, §6

MLK2 = molecular target: T28, MLK2 (Homo sapiens, UniProt Q02779); conditions: MLK2, 100 nM; read-out: Percent Control
T28 construct: purchased DiscoveRx KINOMEscan (TRKA and CSF1R IC50 enzymes from Invitrogen)
Procedure: as §1, §2, §3, §4, §5, §6

PIK3CA = molecular target: T29, PIK3CA (Homo sapiens, UniProt P42336); conditions: 100 nM, read-out: Percent Control
T29 construct: purchased DiscoveRx KINOMEscan (TRKA and CSF1R IC50 enzymes from Invitrogen)
Procedure: as §1, §2, §3, §4, §5, §6

ALK = molecular target: T30, ALK (Homo sapiens, UniProt Q9UM73); conditions: 100 nM, read-out: Percent Control
T30 construct: purchased DiscoveRx KINOMEscan (TRKA and CSF1R IC50 enzymes from Invitrogen)
Procedure: as §1, §2, §3, §4, §5, §6

MYLK4 = molecular target: T31, MYLK4 (Homo sapiens, UniProt Q86YV6); conditions: MYLK4, 100 nM; read-out: Percent Control
T31 construct: purchased DiscoveRx KINOMEscan (TRKA and CSF1R IC50 enzymes from Invitrogen)
Procedure: as §1, §2, §3, §4, §5, §6

IKK-beta = molecular target: T32, IKK-beta (Homo sapiens, UniProt O14920); conditions: 100 nM, read-out: Percent Control
T32 construct: purchased DiscoveRx KINOMEscan (TRKA and CSF1R IC50 enzymes from Invitrogen)
Procedure: as §1, §2, §3, §4, §5, §6

T17 sequence (Q9HBH9 whole entry): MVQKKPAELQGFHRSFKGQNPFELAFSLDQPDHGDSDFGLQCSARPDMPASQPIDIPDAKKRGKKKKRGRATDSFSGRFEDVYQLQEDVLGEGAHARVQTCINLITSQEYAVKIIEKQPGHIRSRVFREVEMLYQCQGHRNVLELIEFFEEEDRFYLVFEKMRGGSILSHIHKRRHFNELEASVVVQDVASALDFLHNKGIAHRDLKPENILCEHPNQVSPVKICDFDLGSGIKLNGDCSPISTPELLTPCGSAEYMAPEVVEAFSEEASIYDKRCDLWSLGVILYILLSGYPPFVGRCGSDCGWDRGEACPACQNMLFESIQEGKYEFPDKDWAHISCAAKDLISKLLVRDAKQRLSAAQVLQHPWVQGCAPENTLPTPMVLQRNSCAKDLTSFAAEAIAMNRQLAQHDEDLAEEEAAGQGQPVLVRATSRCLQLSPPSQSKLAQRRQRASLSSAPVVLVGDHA
T23 sequence (P57078 whole entry): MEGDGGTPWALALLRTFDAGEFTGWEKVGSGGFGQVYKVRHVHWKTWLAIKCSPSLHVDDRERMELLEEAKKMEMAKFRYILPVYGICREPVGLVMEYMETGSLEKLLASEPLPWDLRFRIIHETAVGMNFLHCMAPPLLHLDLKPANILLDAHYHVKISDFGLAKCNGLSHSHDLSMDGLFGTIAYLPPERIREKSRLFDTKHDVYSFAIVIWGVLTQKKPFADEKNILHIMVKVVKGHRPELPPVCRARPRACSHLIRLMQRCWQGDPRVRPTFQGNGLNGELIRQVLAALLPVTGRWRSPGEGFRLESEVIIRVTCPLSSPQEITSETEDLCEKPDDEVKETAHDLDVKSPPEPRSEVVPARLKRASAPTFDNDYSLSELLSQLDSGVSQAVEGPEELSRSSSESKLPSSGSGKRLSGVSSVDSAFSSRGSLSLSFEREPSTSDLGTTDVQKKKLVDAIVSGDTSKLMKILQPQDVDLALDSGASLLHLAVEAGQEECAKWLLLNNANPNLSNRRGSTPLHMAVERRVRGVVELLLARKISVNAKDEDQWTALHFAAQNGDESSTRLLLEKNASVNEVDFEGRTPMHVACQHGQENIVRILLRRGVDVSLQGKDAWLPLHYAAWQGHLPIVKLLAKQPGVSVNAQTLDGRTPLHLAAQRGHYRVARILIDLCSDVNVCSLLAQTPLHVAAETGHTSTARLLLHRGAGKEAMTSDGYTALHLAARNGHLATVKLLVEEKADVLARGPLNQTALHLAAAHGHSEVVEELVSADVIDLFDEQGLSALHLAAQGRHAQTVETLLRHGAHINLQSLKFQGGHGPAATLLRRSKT
T7 sequence (O14976 whole entry): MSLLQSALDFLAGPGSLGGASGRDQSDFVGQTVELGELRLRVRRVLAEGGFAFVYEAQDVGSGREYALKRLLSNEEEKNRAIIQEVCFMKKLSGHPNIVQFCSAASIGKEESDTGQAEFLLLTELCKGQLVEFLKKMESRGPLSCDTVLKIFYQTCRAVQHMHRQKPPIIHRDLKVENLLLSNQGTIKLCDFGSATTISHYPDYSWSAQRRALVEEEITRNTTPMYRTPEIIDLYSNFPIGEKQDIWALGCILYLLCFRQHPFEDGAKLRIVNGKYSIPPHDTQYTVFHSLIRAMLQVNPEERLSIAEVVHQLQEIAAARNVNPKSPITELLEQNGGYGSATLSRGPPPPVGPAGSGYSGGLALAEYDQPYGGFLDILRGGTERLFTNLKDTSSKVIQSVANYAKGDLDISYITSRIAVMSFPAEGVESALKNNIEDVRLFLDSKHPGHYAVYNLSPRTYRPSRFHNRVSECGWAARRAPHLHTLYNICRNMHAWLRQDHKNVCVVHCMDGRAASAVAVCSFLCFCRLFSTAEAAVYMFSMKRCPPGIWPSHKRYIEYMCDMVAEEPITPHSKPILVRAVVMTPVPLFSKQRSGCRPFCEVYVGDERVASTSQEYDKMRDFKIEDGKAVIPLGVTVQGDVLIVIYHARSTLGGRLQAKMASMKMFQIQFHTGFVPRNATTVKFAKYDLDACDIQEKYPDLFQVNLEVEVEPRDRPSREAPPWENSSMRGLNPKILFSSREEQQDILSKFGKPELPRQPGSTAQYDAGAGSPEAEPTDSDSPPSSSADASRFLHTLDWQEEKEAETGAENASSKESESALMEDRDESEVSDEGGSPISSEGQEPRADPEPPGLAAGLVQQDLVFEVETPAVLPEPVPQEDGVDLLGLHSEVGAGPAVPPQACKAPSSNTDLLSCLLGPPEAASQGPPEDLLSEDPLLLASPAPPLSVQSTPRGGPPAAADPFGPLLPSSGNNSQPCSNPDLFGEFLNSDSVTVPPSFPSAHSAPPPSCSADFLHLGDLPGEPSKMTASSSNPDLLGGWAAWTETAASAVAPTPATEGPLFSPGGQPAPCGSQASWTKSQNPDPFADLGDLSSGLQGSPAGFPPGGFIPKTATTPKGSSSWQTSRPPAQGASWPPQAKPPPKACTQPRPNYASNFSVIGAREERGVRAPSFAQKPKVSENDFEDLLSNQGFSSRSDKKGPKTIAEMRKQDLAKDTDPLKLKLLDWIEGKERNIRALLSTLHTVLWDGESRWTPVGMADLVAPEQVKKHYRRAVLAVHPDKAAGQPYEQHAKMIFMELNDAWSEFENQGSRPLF
T13 sequence (Q9H2X6 whole entry): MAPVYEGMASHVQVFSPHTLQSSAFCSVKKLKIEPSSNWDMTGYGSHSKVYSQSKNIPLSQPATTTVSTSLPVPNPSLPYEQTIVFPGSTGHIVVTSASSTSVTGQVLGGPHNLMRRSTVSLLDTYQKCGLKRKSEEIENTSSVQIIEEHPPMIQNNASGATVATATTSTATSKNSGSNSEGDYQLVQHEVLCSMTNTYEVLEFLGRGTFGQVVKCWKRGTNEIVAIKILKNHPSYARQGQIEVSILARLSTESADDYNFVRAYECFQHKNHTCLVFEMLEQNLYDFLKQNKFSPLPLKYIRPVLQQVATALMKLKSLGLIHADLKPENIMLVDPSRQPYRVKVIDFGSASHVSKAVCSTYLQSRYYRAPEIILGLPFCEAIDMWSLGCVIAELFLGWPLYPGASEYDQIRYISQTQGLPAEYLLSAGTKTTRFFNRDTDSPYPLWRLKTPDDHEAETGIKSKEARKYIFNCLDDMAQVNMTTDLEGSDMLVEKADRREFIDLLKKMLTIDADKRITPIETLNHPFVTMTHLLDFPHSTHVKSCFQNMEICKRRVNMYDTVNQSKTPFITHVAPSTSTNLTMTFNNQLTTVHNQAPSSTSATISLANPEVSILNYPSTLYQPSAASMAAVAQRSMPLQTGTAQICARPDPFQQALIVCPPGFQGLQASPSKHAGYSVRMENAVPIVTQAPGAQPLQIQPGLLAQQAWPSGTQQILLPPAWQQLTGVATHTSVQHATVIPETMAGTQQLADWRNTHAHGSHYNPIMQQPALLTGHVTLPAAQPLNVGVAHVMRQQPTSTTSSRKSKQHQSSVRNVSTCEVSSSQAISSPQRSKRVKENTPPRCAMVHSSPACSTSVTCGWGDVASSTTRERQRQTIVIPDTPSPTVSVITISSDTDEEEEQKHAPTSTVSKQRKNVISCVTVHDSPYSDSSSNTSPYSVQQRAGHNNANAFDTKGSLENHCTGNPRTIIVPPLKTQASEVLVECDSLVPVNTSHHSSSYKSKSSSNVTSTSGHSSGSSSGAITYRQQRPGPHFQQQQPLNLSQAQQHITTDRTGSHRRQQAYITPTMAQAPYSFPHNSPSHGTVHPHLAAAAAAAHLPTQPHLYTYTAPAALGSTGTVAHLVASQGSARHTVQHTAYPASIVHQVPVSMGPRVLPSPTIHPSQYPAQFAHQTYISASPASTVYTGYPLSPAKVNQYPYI
T22 sequence (P23443 whole entry): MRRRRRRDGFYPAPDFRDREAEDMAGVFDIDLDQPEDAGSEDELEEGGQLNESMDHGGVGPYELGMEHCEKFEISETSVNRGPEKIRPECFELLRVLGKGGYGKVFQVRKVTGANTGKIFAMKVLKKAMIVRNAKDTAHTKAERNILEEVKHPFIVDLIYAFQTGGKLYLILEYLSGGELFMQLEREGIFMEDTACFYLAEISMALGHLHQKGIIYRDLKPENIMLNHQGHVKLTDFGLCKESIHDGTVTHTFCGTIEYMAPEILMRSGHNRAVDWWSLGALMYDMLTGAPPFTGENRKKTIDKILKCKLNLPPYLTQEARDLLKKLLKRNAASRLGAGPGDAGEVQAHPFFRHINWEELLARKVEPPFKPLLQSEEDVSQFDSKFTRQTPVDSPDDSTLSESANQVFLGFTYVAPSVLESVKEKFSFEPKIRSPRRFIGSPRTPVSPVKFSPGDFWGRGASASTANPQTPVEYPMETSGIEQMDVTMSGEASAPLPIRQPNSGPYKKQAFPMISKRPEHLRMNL
T31 sequence (Q86YV6 whole entry): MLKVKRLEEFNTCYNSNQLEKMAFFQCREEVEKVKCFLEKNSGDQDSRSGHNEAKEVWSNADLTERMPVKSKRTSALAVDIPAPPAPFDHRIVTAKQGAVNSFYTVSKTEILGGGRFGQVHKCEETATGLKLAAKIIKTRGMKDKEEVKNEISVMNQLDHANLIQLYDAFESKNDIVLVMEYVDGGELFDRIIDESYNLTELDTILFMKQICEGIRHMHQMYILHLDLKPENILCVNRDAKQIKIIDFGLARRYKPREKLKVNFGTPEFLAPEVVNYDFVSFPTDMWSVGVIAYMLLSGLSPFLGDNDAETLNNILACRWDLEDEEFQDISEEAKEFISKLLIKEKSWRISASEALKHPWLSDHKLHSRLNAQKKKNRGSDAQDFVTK
T1 sequence (Q00535 whole entry): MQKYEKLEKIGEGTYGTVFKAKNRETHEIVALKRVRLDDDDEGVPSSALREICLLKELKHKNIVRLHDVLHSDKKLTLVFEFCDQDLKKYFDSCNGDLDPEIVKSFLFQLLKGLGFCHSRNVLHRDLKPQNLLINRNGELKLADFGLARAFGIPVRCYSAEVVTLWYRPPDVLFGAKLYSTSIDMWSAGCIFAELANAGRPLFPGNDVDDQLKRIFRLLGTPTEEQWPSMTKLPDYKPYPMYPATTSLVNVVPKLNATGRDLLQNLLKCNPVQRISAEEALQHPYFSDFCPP

Structure (SMILES): CC(C)(C)c1cc(NC(=O)Cc2ccc(-n3cnc4cc(-c5ccc(S(C)(=O)=O)cc5)ccc43)cc2)no1 [NPA101.3]
- remaining binding at 0.1 µM (CDK5): 97%
- remaining binding at 0.1 µM (LRRK2): 100%
- remaining binding at 0.1 µM (CDK7): 28%
- remaining binding at 0.1 µM (CAMK2A): 98%
- remaining binding at 0.1 µM (ASK1): 95%
- remaining binding at 0.1 µM (PLK1): 99%
- remaining binding at 0.1 µM (GAK): 42%
- remaining binding at 0.1 µM (MTOR): 97%
- remaining binding at 0.1 µM (ULK1): 100%
- remaining binding at 0.1 µM (MYO3A): 77%
- remaining binding at 0.1 µM (PCTK1): 89%
- remaining binding at 0.1 µM (FGFR3): 100%
- remaining binding at 0.1 µM (HIPK2): 98%
- remaining binding at 0.1 µM (AXL): 62%
- remaining binding at 0.1 µM (TLK1): 100%
- remaining binding at 0.1 µM (BTK): 93%
- binding (% bound) (MKNK2; 100 nM): > 90 % bound
- remaining binding at 0.1 µM (MKNK2; MKNK2, 100 nM, read-out: Percent Control): 0.15%
- remaining binding at 0.1 µM (CTK): 56%
- remaining binding at 0.1 µM (TSSK1B): 96%
- remaining binding at 0.1 µM (ACVR1): 92%
- remaining binding at 0.1 µM (AURKA): 100%
- remaining binding at 0.1 µM (S6K1): 100%
- remaining binding at 0.1 µM (RIPK4): 100%
- remaining binding at 0.1 µM (FAK): 86%
- remaining binding at 0.1 µM (PIK3C2B): 100%
- remaining binding at 0.1 µM (BUB1): 100%
- remaining binding at 0.1 µM (TXK): 85%
- remaining binding at 0.1 µM (MLK2): 100%
- remaining binding at 0.1 µM (PIK3CA): 100%
- remaining binding at 0.1 µM (ALK): 93%
- remaining binding at 0.1 µM (MYLK4): 89%
- remaining binding at 0.1 µM (IKK-beta): 100%
